# Key:
# [1] = at 20° C.; cited from earlier work
# [2] = assay type: physicochemical
# Source text: Thus the long term stability of PNT with triacetin (or other oily vehicles) is highly unexpected.
# After one month in accelerated stability the components of the composition appeared to degrade rapidly with a resulting colour change from an off-white to a dark yellow with dark brown sludge forming. The degradation components appeared to include a gas, resulting in the container swelling from the resultant pressure. Accordingly, the formulations described in CN 1517090 are not known to be storage stable.
# [3] = blood pH (7.2); cited from earlier work
# [4] = intramuscular administration; Friton 2003; cited from earlier work
smiles,measurement,setting,value
CC(=O)OCC(COC(C)=O)OC(C)=O [Triacetin],viscosity,[1],approximately 23 mPas
CC1(C)S[C@@H]2[C@H](NC(=O)Cc3ccccc3)C(=O)N2[C@H]1C(=O)O [benzylpenicillin],chemical stability on storage,[2],chemically unstable on storage
CCN(CC)CCOC(=O)[C@@H]1N2C(=O)[C@@H](NC(=O)Cc3ccccc3)[C@H]2SC1(C)C.I [penethamate hydroiodide],active drug present in its hydrolysed form (benzylpenicillin) at equilibrium,[3],91.8%
same,time to peak serum levels (measured as dissociated penicillin G) after injection,[4],3.76 h
CC1(C)S[C@@H]2[C@H](NC(=O)Cc3ccccc3)C(=O)N2[C@H]1C(=O)O.CCN(CC)CCOC(=O)c1ccc(N)cc1 [procaine penicillin],chemical stability of composition,[2],chemically unstable
same,chemical stability on storage,[2],chemically unstable on storage
